Test results taken from patent US9115072B2, “Compounds and method for reducing uric acid” (WELLSTAT THERAPEUTICS CORPORATION, priority 2008, dated 2015).
“And” between values parts separate entries of the source, which are not always exact repeats. Equal entries are not always repeated.

Assays:
[1] = Rat oral single-dose pharmacokinetic study; format: in vivo; conditions: 100 mg/kg single oral gavage
Protocol: (§1) • 1. Male Sprague-Dowley rats received single oral gavage of Compound EH, 100 mg/kg, and plasma was collected at certain times. • 2. Rat plasma was stored at −80° C. until the day of analysis. • 3. Samples were thawed on 37° C. bath for 5 min and vortexed at top speed for 10 sec. • 4. Rat plasma, 0.1 mL was mixed with 0.2 mL Acetonitrile, vortexed 1 min, spun down 14000 rpm, 17000 g, at 4° C., for 25 min. • 5. Supernatants were filtered through 0.45 micron, 4 mm, PTFE membrane syringe filter (Phenomenex #AF0-3102-52), and 15 microL were injected and resolved on Luna 3 micron, 100 A pore, C8(2), 150×3 mm, reverse phase column (Phenomenex#00F-4248-YO, SN#259151-7) in 50 min linear gradient from 40% to 69% of (0.1% Formic Acid, 89.9% Acetonitrile, 10% Methanol) at 0.25 mL/min, 107 bar, 37° C. column temperature, method 406975M1, Sequence 0226-09A, Agilent 1100 LC-MS.
(§2) All samples were run in duplicate, 210 nm and 230 nm Absorbances, Negative and Positive ionization spectrograms recorded.
Step 1. Rat plasma from V2 and V3 animals (“vehicle”, pooled), 0.19 mL, was mixed with 0.01 mL 20× stock of Compound EH in Methanol to make 500 microM, 250 microM, 125 microM, . . . , concentrations of Compound EH in plasma.
For example: 190 microL plasma+10 microL of 10 mM Compound EH in methanol=0.2 mL plasma with 500 microM Compound EH.
Step 2. Samples from step 1 were vortexed for 10 sec at top speed.
Step 3. 0.4 mL of acetonitrile was added to all samples from Step 2, and all vials were vortexed at top speed for 1 min.
Step 4. All samples from step 3 were spun down 14000 rpm, 17000 g, at 4° C., for 25 min.
Step 5. Supernatants were filtered through 0.45 micron, 4 mm, PTFE membrane syringe filter (Phenomenex #AF0-3102-52), 15 microL were injected and resolved on Luna 3 micron, 100 A pore, C8(2), 150×3 mm, reverse phase column

[2] = Mouse oral single-dose pharmacokinetic study; format: in vivo; conditions: for Compound EH Concentration in mouse PLASMA: individual mice; for Compound EH concentr., mean: Data from Sigma Stat
Protocol: as §1, with “1. Mice” for “1. Male Sprague-Dowley rats”, “2. Plasma” for “2. Rat plasma”, “4. Mouse” for “4. Rat”, “column (Phenomenex#00E-4248-YO,” for “column (Phenomenex#00F-4248-YO,”, “mL/min, 100” for “mL/min, 107”, “Sequence 0205-09A,” for “Sequence 0226-09A,”
as §2
• Step 1. Plasma from “Vehicle” animals (pooled), 0.19 mL, was mixed with 0.01 mL 20× stock of Compound EH in Methanol to make 500 microM, 250 microM, 125 microM, . . . , concentrations of Compound EH in plasma. • For example: 190 microL plasma+10 microL of 10 mM Compound EH in methanol=0.2 mL plasma with 500 microM Compound EH. • Step 2. Samples from step 1 were vortexed for 10 sec at top speed. • Step 3. 0.4 mL of acetonitrile was added to all samples from Step 2, and all vials were vortexed at top speed for 1 min • Step 4. All samples from step 3 were spun down 14000 rpm, 17000 g, at 4° C., for 25 min. • Step 5. Supernatants were filtered through 0.45 micron, 4 mm, PTFE membrane syringe filter (Phenomenex #AF0-3102-52), 15 microL were injected and resolved on Luna 3 micron, 100 A pore, C8(2), 150×3 mm, reverse phase column

concentration at 0 h ([1]; male, Sprague-Dawley, rat, plasma, time 0 HR, read-out: Compound EH concentration in rat plasma): 0 µM
concentration at 0.25 h ([1]; male, Sprague-Dawley, rat, plasma, time 0.25 HR, read-out: Compound EH concentration in rat plasma): 349 µM
concentration at 0.5 h ([1]; male, Sprague-Dawley, rat, plasma, time 0.5 HR, read-out: Compound EH concentration in rat plasma): 723 µM
concentration at 2 h ([1]; male, Sprague-Dawley, rat, plasma, time 2 HR, read-out: Compound EH concentration in rat plasma): 79 µM
concentration at 4 h ([1]; male, Sprague-Dawley, rat, plasma, time 4 HR, read-out: Compound EH concentration in rat plasma): 126 µM
concentration at 6 h ([1]; male, Sprague-Dawley, rat, plasma, time 6 HR, read-out: Compound EH concentration in rat plasma): 112 µM
concentration at 8 h ([1]; male, Sprague-Dawley, rat, plasma, time 8 HR, read-out: Compound EH concentration in rat plasma): 48 µM
concentration at 24 h ([1]; male, Sprague-Dawley, rat, plasma, time 24 HR, read-out: Compound EH concentration in rat plasma): 0 µM
Cmax ([1]; male, Sprague-Dawley, rat plasma): 723 µM
AUC(0-24) ([1]; rat plasma): 1765 µM·h
Compound EH Concentration in mouse PLASMA ([2]; 100 mg/kg single oral gavage, bleed time 0.5 HR, 100 mg/kg): 430 µM and 342 µM and 523 µM
Compound EH Concentration in mouse PLASMA ([2]; 100 mg/kg single oral gavage, bleed time 1 HR, 100 mg/kg): 467 µM and 447 µM and 406 µM
Compound EH Concentration in mouse PLASMA ([2]; 100 mg/kg single oral gavage, bleed time 2 HR, 100 mg/kg): 178 µM and 238 µM and 241 µM
Compound EH Concentration in mouse PLASMA ([2]; 100 mg/kg single oral gavage, bleed time 4 HR, 100 mg/kg): 148 µM and 154 µM and 134 µM
Compound EH Concentration in mouse PLASMA ([2]; 100 mg/kg single oral gavage, bleed time 6 HR, 100 mg/kg): 93 µM and 268 µM and 231 µM
Compound EH Concentration in mouse PLASMA ([2]; 100 mg/kg single oral gavage, bleed time 8 HR, 100 mg/kg): 95 µM and 147 µM and 187 µM
Compound EH Concentration in mouse PLASMA ([2]; 100 mg/kg single oral gavage, bleed time 12 HR, 100 mg/kg): 79 µM and 36 µM and 74 µM
Compound EH Concentration in mouse PLASMA ([2]; 100 mg/kg single oral gavage, bleed time 16 HR, 100 mg/kg): 25 µM and 61 µM
Compound EH Concentration in mouse PLASMA ([2]; 100 mg/kg single oral gavage, bleed time 24 HR, 100 mg/kg): 40 µM and 26 µM and 0.74 µM
Compound EH Concentration in mouse PLASMA ([2]; 100 mg/kg single oral gavage, bleed time 48 HR): 0 µM
Compound EH concentr., mean ([2]; mouse plasma, 100 mg/kg oral, time bleed 0 HR): 0 µM
Compound EH concentr., mean ([2]; mouse plasma, 100 mg/kg oral, time bleed 0.5 HR): 431.7 µM
Compound EH concentr., mean ([2]; mouse plasma, 100 mg/kg oral, time bleed 1 HR): 440 µM
Compound EH concentr., mean ([2]; mouse plasma, 100 mg/kg oral, time bleed 2 HR): 219 µM
Compound EH concentr., mean ([2]; mouse plasma, 100 mg/kg oral, time bleed 4 HR): 145.3 µM
Compound EH concentr., mean ([2]; mouse plasma, 100 mg/kg oral, time bleed 6 HR): 197.3 µM
Compound EH concentr., mean ([2]; mouse plasma, 100 mg/kg oral, time bleed 8 HR): 143 µM
Compound EH concentr., mean ([2]; mouse plasma, 100 mg/kg oral, time bleed 12 HR): 63 µM
Compound EH concentr., mean ([2]; mouse plasma, 100 mg/kg oral, time bleed 16 HR): 43 µM
Compound EH concentr., mean ([2]; mouse plasma, 100 mg/kg oral, time bleed 24 HR): 22.247 µM
Compound EH concentr., mean ([2]; mouse plasma, 100 mg/kg oral, time bleed 48 HR): 0 µM
Cmax ([2]; mouse plasma, 100 mg/kg single oral gavage): 440 µM
concentration at 0 h ([2]; mouse, plasma, 100 mg/kg oral, Time 0 HR, Table 13, read-out: Cpd. EH (mouse plasma concentration)): 0 µM
concentration at 0.5 h ([2]; mouse, plasma, 100 mg/kg oral, Time 0.5 HR, Table 13, read-out: Cpd. EH (mouse plasma concentration)): 432 µM
concentration at 1 h ([2]; mouse, plasma, 100 mg/kg oral, Time 1 HR, Table 13, read-out: Cpd. EH (mouse plasma concentration)): 440 µM
concentration at 2 h ([2]; mouse, plasma, 100 mg/kg oral, Time 2 HR, Table 13, read-out: Cpd. EH (mouse plasma concentration)): 219 µM
concentration at 4 h ([2]; mouse, plasma, 100 mg/kg oral, Time 4 HR, Table 13, read-out: Cpd. EH (mouse plasma concentration)): 145 µM
concentration at 6 h ([2]; mouse, plasma, 100 mg/kg oral, Time 6 HR, Table 13, read-out: Cpd. EH (mouse plasma concentration)): 197 µM
concentration at 8 h ([2]; mouse, plasma, 100 mg/kg oral, Time 8 HR, Table 13, read-out: Cpd. EH (mouse plasma concentration)): 143 µM
concentration at 12 h ([2]; mouse, plasma, 100 mg/kg oral, Time 12 HR, Table 13, read-out: Cpd. EH (mouse plasma concentration)): 63 µM
concentration at 16 h ([2]; mouse, plasma, 100 mg/kg oral, Time 16 HR, Table 13, read-out: Cpd. EH (mouse plasma concentration)): 43 µM
concentration at 24 h ([2]; mouse, plasma, 100 mg/kg oral, Time 24 HR, Table 13, read-out: Cpd. EH (mouse plasma concentration)): 22 µM
concentration at 48 h ([2]; mouse, plasma, 100 mg/kg oral, Time 48 HR, Table 13, read-out: Cpd. EH (mouse plasma concentration)): 0 µM
SMILES: Cc1ccc(CC(=O)O)cc1OCc1c(C)cccc1C [Compound EH, 2-(3-(2,6-Dimethylbenzyloxy)-4-methylphenyl)acetic acid]
